Laboratory results from article PMC9663578, “A fluorogenic probe for predicting treatment response in non-small cell lung cancer with EGFR-activating mutations” (Nature Communications, 2022).
Where “and” joins values, the source holds several entries; their conditions need not be identical. Equal entries are not always repeated.

What was measured:
EGFR T790M = target: T1, EGFR T790M (Homo sapiens, UniProt P00533, T790M); assay: Fluorescence turn-on response / titration of HX103 with recombinant EGFR;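 as to Fluorescence intensity at 570 nm: 100% is HX103 fluorescence with wild-type EGFR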; type: binding; conditions: for Fluorescence intensity, T790M: Fig. 2c; for Fluorescence response of HX103 to EGFR T790M: Supplementary Fig. 2f
T1 construct: EGFR T790M (amino acids 668–1210, #PR8052A); purchased Thermo Fisher PR8052A
Experimental: (d) Fluorescence spectra change of HX103 (5 µ M) with increasing concentration of EGFR L858R
(e) Fluorescence spectra change of HX103 (5 µ M ) with
increasing concentration of EGFR 19del (0 to 6 µM) in PBS buffer. (f) Titration curve of HX103
(5 µM) with increasing concentration of EGFRs (0 to 6 µM). The apparent binding affinity (Kd)
The fluorescence titration curve was fitted on one -
site specific binding model. I and I0 represent the intensities of HX103 at 570 nm in the presence
and absence of protein. Data represent average val ues ± SD, n = 3 independent experiments per
solution was diluted in sodium phosphate buffer (PBS, 1 M, pH=7.4) to obtain the desired final
Data analysis：The obtained fluorescence intensity at 570 nm (Excitation wavelength was 440
was set at 100% to normalized that of the remaining samples.

[1] = system: tumor tissues from NSCLC patients; assay: HX103-based multicolor FACS, surgical tumor tissues; type: cell-based, human
Experimental: The obtained tissues were dissociated into single-cell suspension using a standard protocol of primary cell isolation. Briefly, the obtained fresh tissue was placed in a petri dish on ice and cut into small pieces of ~2 mm. […] Subsequently, the digested sample was filtered through 70-μm and 40-μm cell strainer (Falcon), respectively, followed by the wash with serum-free medium (DMEM). The tumor cell pellet was then obtained by centrifugation at 500×g for 5 min at 4 °C for the removal of the supernatant. Then, the cell pellet was resuspended in serum-free medium and 1 mL of red blood cell lysis buffer was added and incubated for 5 min to remove the erythrocyte. The cells were pelleted and resuspended in a serum-free medium and ready for FACS analysis[67],[68]. […]
Gibco), and digested for 30 min at 37 ℃ under gentle agitation. […] The cells were pelleted and resuspended in serum-free medium and ready for FACS analysis 2, 3. […]
The co-staining was performed for 30 min at 37 °C, then the cells were pelleted (2000 g, 3 min) and washed with PBS buffer and PBS (containing 1% BSA) (2 times). The cells were pelleted (2000 g, 3 min) and resuspended in PBS (containing 1% BSA) and ready for analysis with a FACSVerseTM flow cytometer (BD Biosciences, LSRFortessa) (the lasers used for this study: 405 nm, 488 nm and 647 nm). […]

MTT cytotoxicity assay = type: cell-based; conditions: human, A431 cells, EGFR wild-type, n=3
H1975 cells = assay: MTT cytotoxicity assay; type: cell-based; conditions: Homo sapiens, NCI-H1975; EGFR L858R/T790M, 48 h, n=3
[2] = Measurement of optical properties; type: physicochemical; conditions: for Fluorescence intensity, HX103 only: Fig. 2a
Experimental: page 66: […] Measurement of optical properties In the study, UV-vis spectra of the probes were determined on a Hitachi U-2910. The fluorescence spectroscopic experiments were performed on BioTek microplate reader and Horiba Jobin Yvon - Edison Fluoromax-4. Absolute fluorescence quantum efficiency was measured by an absolute quantum yield spectrometer (Horiba Jobin Yvon-Edison Fluoromax-4). The tested probe was dissolved in dimethyl sulfoxide (DMSO) to obtain stock solutions (10 mM). The prepared stock […] concentration solution, containing 0.1% (v/v) DMSO as a cosolvent. For the in vitro kinase […] The excitation and emission fluorescence spectra of the solution before/after addition o f different concentration […] Data analysis:The obtained fluorescence intensity at 570 nm (Excitation wavelength was 440 nm) in each sample was normalized by using the fluorescence intensity of HX103 in the presence of EGFR. Specifically, the fluorescence intensity of HX103 in the presence of EGFR wild-type […] 66

HCC827 cells = assay: FACS assay in cultured cells; conditions: for HX103 dose-dependent signal (Supplementary Fig. 18): 20 µM = 100
Experimental: Briefly, the cultured cells were seeded on the petri dish and counted using Count star BioMed automated cell counter. Around 10^6 live-cells were collected and were pelleted (2000×g, 3 min), followed by washing with PBS (2x). Cells were then resuspended in PBS buffer containing 0.1% BSA (1 × 10^6 cells/mL). […] The cell suspension was resuspended in PBS and analyzed with a FACSVerse^TM flow cytometer (BD Biosciences, LSRFortessa). About 10,000 events per tube were analyzed and the mean fluorescence intensity was detected and analyzed.
For the FACS assay with EGFR antibody, around 10^6 live-cells were collected and washed with PBS (2x). The cells were fixed by 400 µL 4% paraformaldehyde for 15 min at room temperature, followed by permeabilization with 0.1% Triton X-100 for 10 min and blocking with 5% BSA for 30 min. […] The cells were then washed with 0.5% BSA/PBS (3x) and resuspended in 400 µL of 0.1% BSA/PBS. […] The resuspended cell suspension was then analyzed on a FACSVerseTM flow cytometer (BD Biosciences, LSRFortessa). Nonspecific fluorescence binding was omitted by Rabbit mAb IgG isotype control (#3900, CST, 1:100) and the corresponding mean fluorescence was subtracted from the signal measured with each primary antibody. About 10,000 events per tube were analyzed and the mean fluorescence intensity was detected and analyzed.
Subsequently, the treated cells were incubated for 30 min at 37 °C, followed by washing with PBS buffer three times. […] Finally, the co-stained cells were washed with 0.5% BSA/PBS for three times and resuspended in 400 µL of 0.1% BSA/PBS. The obtained cell suspension was ready for analysis. Nonspecific fluorescence binding was omitted by Rabbit mAb IgG isotype control (#3900, CST, 1:100) as described above.
Nonspecific fluorescence binding was omitted by Rabbit mAb IgG isotype control (#3900, CST, 1:100). […] After incubation for another 30 min at room temperature, the co-stained cells were washed with 0.5% BSA/PBS for three times and resuspended in 400 µL of 0.1% BSA/PBS. The obtained cell suspension was ready for analysis. Nonspecific fluorescence binding was omitted by Rabbit mAb IgG isotype control (#3900, CST, 1:100) as described above.
The cells were seeded on the petri dish and cultured at the normal condition with 10% FBS, and that was changed to serum-free condition for 24 h when the cells proliferated at ~80% confluence. […] Nonspecific fluorescence binding was omitted by Rabbit mAb IgG isotype control (#3900, CST, 1:100) as described above.

- Fluorescence intensity, T790M (EGFR T790M; wavelength 695 nm): 1359.54
- Fluorescence intensity, T790M (EGFR T790M; wavelength 698 nm): 1296.59
- Fluorescence intensity, T790M (EGFR T790M; wavelength 700 nm): 1231.99
- Fluorescence intensity at 570 nm (EGFR T790M; Fig. 2d, HX103 with EGFR T790M, n=1-3): 62.6243 and 56.177 and 61.7341
- fluorescence turn-on response (EGFR T790M; HX103 5 µM in PBS buffer (0.1% DMSO), 570 nm): relatively low fluorescence
- Kd (EGFR T790M; HX103 5 µM, EGFR 0 to 6 µM in PBS, one-site specific binding model, read-out: apparent binding affinity (Kd)): 6.6 ± 4.6 µM
- Fluorescence response of HX103 to EGFR T790M (EGFR T790M; EGFR 0.1 µM, n=1-3): 0.8143 and 0.8764 and 0.5043
- Fluorescence response of HX103 to EGFR T790M (EGFR T790M; EGFR 0.5 µM, n=1-3): 1.381 and 1.689 and 1.392
- Fluorescence response of HX103 to EGFR T790M (EGFR T790M; EGFR 1 µM, n=1-3): 1.713 and 2.039 and 1.744
- Fluorescence response of HX103 to EGFR T790M (EGFR T790M; EGFR 6 µM, n=1-3): 6.037 and 7.198 and 5.58
- Stokes shift [2]: 130 nm
- excitation maximum [2]: 340/440
- absolute quantum yield ([2]; DMSO): 42.4%
- maximum UV absorption ([2]; DMSO): 342/438
- Fluorescence intensity, HX103 only ([2]; wavelength 666 nm): 328.882
- Fluorescence intensity, HX103 only ([2]; wavelength 669 nm): 313.191
- Fluorescence intensity, HX103 only ([2]; wavelength 671 nm): 290.291
- Fluorescence intensity, HX103 only ([2]; wavelength 673 nm): 261.813
- Fluorescence intensity, HX103 only ([2]; wavelength 676 nm): 236.251
- Fluorescence intensity, HX103 only ([2]; wavelength 678 nm): 222.471
- Fluorescence intensity, HX103 only ([2]; wavelength 681 nm): 229.28
- Fluorescence intensity, HX103 only ([2]; wavelength 683 nm): 261.184
- Fluorescence intensity, HX103 only ([2]; wavelength 686 nm): 315.405
- Fluorescence intensity, HX103 only ([2]; wavelength 688 nm): 388.462
- Fluorescence intensity, HX103 only ([2]; wavelength 690 nm): 476.875
- Fluorescence intensity, HX103 only ([2]; wavelength 693 nm): 577.288
- Fluorescence intensity, HX103 only ([2]; wavelength 695 nm): 686.662
- Fluorescence intensity, HX103 only ([2]; wavelength 698 nm): 802.01
- Fluorescence intensity, HX103 only ([2]; wavelength 700 nm): 920.343
- Fluorescence intensity at 570 nm ([2]; Fig. 2b, HX103 alone, n=1-3): 8.2448 and 8.538 and 6.65
- absolute quantum yield ([2]; PBS): 5.8%
- fluorescence emission wavelength ([2]; excitation at 440 nm): 570 nm
SMILES: COc1cc2c(Nc3ccc(F)c(Cl)c3)ncnc2cc1OCCCNc1ccc(S(=O)(=O)N(C)C)c2nonc12 [HX103]
- mean % value of HX103(+), EGFR 19del tumors ([1]; n = 4): 40.6±8.2%
- mean % value of HX103(+), EGFR L858R tumors ([1]; n = 8): 65.3±10.9%
- IC50 at 48 h (MTT cytotoxicity assay): 26 µM
- IC50 (H1975 cells): 45 µM
- EGFR(+) HX103 (+) (%) AVE (HCC827 cells; HCC827, AVE of n=3): 80.23%
- HX103 (+) (%) AVE (HCC827 cells; HCC827, AVE of n=3): 86.6667%
- HX103 dose-dependent signal (Supplementary Fig. 18) (HCC827 cells; HCC827, HX103 0.01 µM): 0.7326 and 0.7683 and 0.9746
- HX103 dose-dependent signal (Supplementary Fig. 18) (HCC827 cells; HCC827, HX103 0.04 µM): 2.846 and 2.806 and 2.831
- HX103 dose-dependent signal (Supplementary Fig. 18) (HCC827 cells; HCC827, HX103 0.37 µM): 22.4134 and 22.8581 and 22.7877
- HX103 dose-dependent signal (Supplementary Fig. 18) (HCC827 cells; HCC827, HX103 1.1 µM): 38.2787 and 42.4364 and 41.8565
- HX103 dose-dependent signal (Supplementary Fig. 18) (HCC827 cells; HCC827, HX103 3.3 µM): 54.3583 and 44.1499 and 45.6521
- HX103 dose-dependent signal (Supplementary Fig. 18) (HCC827 cells; HCC827, HX103 10 µM): 74.1678 and 84.8664 and 79.5169
- HX103 dose-dependent signal (Supplementary Fig. 18) (HCC827 cells; HCC827, HX103 15 µM): 88.3889 and 68.5257 and 78.4542
- HX103 dose-dependent signal (Supplementary Fig. 18) (HCC827 cells; HCC827, HX103 20 µM): 100
- HX103 signal (Supplementary Fig. 7) (HCC827 cells; HCC827, HX103 alone or with Gefitinib, replicates n=1-3): 106.679 and 93.3209 and 100
- EGFR(+) HX103 (+) (%) (HCC827 cells; HCC827, replicates n=1-3): 76.09% and 81.73% and 82.87%
- HX103(+) (%) (HCC827 cells; HCC827, replicates n=1-3): 99.17% and 83.21% and 77.62%
- normalized MFI of HX103 labeling (HCC827 cells; HX103 5 µM, 30 min, replicates n=1-3): 92.4893% and 105.794% and 84.1202%
- EGFR(+) HX103 (+) (%) (HCC827 cells; HX103 5 µM, replicates n=1-3): 81.73% and 82.87% and 76.09%
